Measurements: PubChem BioAssay (NCI)
Where “and” joins values, the source holds several entries; their conditions need not be identical. Identical values can stand only once.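 Five compound concentrations were applied to cells in 96-well plates for 48 hours; endpoints were derived by simple linear interpolation of the resulting dose-response curve. Abbreviation: GI50, concentration required for 50% inhibition of growth. TGI is the concentration that stops growth completely.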

tested on: HCC-2998 colon; test: NCI anticancer screen, dose series, 48 h

Row | Compound | TGI | GI50 [µM]
1 | CC1C=C(CCCCCCCCCCCC[C@@H](O)[C@@H]2CC[C@@H]([C@@H]3CC[C@@H](C(O)CCCCCCCCCCCCC4=C[C@H](C)OC4=O)O3)O2)C(=O)O1 (some centres undefined) | > 100 µM | –
2 | COc1cc([C@@H]2OCC3C(c4ccc5c(c4)OCO5)OCC32)cc(OC)c1OC (some centres undefined) | > 100 µM | –
3 | N#CN=C(N(Cc1ccccc1)Cc1ccccc1)N(Cc1ccccc1)Cc1ccccc1 | > 100 µM | –
4 | CCCNC1=C2CC(C)CC(OC)[C@@H](O)[C@H](C)/C=C(\C)C(OC(N)=O)C(OC)/C=C\C=C(/C)C(=O)NC(=CC1=O)C2=O (some centres undefined) | 3.23 µM and 13.1 µM | 0.359
5 | C[n+]1c2ccccc2c(/C=N\NS(=O)(=O)c2ccc(O)c(C(=O)O)c2)c2ccccc21 | > 100 µM | –
6 | N.N.N.N.O=[N+]([O-])[O-].[Co+3].[N-]=[N+]=[N-].[N-]=[N+]=[N-] | > 100 µM | –
7 | CC[C@@]1(C[C@H]2C[C@@]3(C(=O)OC)c4[nH]c5ccccc5c4CCN3C2=O)COC2(CCCCC2)O1 | 62.1 µM | –
8 | COc1ccc(C2c3cc4c(cc3OC(NNS(=O)(=O)c3ccc(C)cc3)C2C)OCO4)cc1 (centres undefined) | > 100 µM | –
9 | CCC12C=CCN3CCC4(C(=C(C(=O)OC)[C@@H]1O)Nc1ccccc14)C32 (some centres undefined) | 3.06 µM | –
10 | Oc1cc2c3c(c1)c1cc4c(cc1c[n+]3CC2)OCO4 | 25.9 µM | –
11 | COc1nc(N)c(C(=O)CCl)c(=O)n1C | 23 µM | –
12 | CC(=O)NC1=C(NCCC(C)C)C(=O)c2ccccc2C1=O | > 50 µM | –
13 | O=C([O-])CC(=O)[O-].O=C([O-])CC(=O)[O-].[K+].[Pd+2] | > 100 µM | > 100

tested on: KM12 colon; test: NCI anticancer screen, dose series, 48 h

Row | Compound | TGI | GI50 [µM]
14 | CC1C=C(CCCCCCCCCCCC[C@@H](O)[C@@H]2CC[C@@H]([C@@H]3CC[C@@H](C(O)CCCCCCCCCCCCC4=C[C@H](C)OC4=O)O3)O2)C(=O)O1 (some centres undefined) | > 100 µM | –
15 | COc1cc([C@@H]2OCC3C(c4ccc5c(c4)OCO5)OCC32)cc(OC)c1OC (some centres undefined) | > 100 µM | –
16 | N#CN=C(N(Cc1ccccc1)Cc1ccccc1)N(Cc1ccccc1)Cc1ccccc1 | > 100 µM | –
17 | CCCNC1=C2CC(C)CC(OC)[C@@H](O)[C@H](C)/C=C(\C)C(OC(N)=O)C(OC)/C=C\C=C(/C)C(=O)NC(=CC1=O)C2=O (some centres undefined) | 0.673 µM and 0.727 µM | 0.0239
18 | C[n+]1c2ccccc2c(/C=N\NS(=O)(=O)c2ccc(O)c(C(=O)O)c2)c2ccccc21 | > 100 µM | –
19 | CC(=O)Nc1ccc(-c2nnc(SCC(=O)Nc3ccc([N+](=O)[O-])cc3)o2)cc1 | 27.7 µM | –
20 | N.N.N.N.O=[N+]([O-])[O-].[Co+3].[N-]=[N+]=[N-].[N-]=[N+]=[N-] | > 100 µM | –
21 | NC(=O)C(c1ccccc1)N1OC2C(=O)N(c3ccccc3)C(=O)C2C1c1c2ccccc2c(Cl)c2ccccc12 (centres undefined) | > 100 µM | –
22 | CC[C@@]1(C[C@H]2C[C@@]3(C(=O)OC)c4[nH]c5ccccc5c4CCN3C2=O)COC2(CCCCC2)O1 | 66.9 µM | –
23 | COc1ccc(C2c3cc4c(cc3OC(NNS(=O)(=O)c3ccc(C)cc3)C2C)OCO4)cc1 (centres undefined) | > 100 µM | –
24 | CCC12C=CCN3CCC4(C(=C(C(=O)OC)[C@@H]1O)Nc1ccccc14)C32 (some centres undefined) | 3.19 µM | –
25 | Oc1cc2c3c(c1)c1cc4c(cc1c[n+]3CC2)OCO4 | 13.9 µM | –
26 | COc1nc(N)c(C(=O)CCl)c(=O)n1C | 30.4 µM | –
27 | [N-]=[N+]=Nc1cc(=O)oc2ccccc12 | > 100 µM | –
28 | CC(=O)NC1=C(NCCC(C)C)C(=O)c2ccccc2C1=O | > 50 µM | –

tested on: SF-539 CNS; test: NCI anticancer screen, dose series, 48 h

Row | Compound | TGI [µM] | GI50 [µM]
29 | CC1C=C(CCCCCCCCCCCC[C@@H](O)[C@@H]2CC[C@@H]([C@@H]3CC[C@@H](C(O)CCCCCCCCCCCCC4=C[C@H](C)OC4=O)O3)O2)C(=O)O1 (some centres undefined) | 52.6 | –
30 | COc1cc([C@@H]2OCC3C(c4ccc5c(c4)OCO5)OCC32)cc(OC)c1OC (some centres undefined) | > 100 | –
31 | N#CN=C(N(Cc1ccccc1)Cc1ccccc1)N(Cc1ccccc1)Cc1ccccc1 | > 100 | –
32 | CCCNC1=C2CC(C)CC(OC)[C@@H](O)[C@H](C)/C=C(\C)C(OC(N)=O)C(OC)/C=C\C=C(/C)C(=O)NC(=CC1=O)C2=O (some centres undefined) | 18.3 | 0.402
33 | C[n+]1c2ccccc2c(/C=N\NS(=O)(=O)c2ccc(O)c(C(=O)O)c2)c2ccccc21 | > 100 | –
34 | CC(=O)Nc1ccc(-c2nnc(SCC(=O)Nc3ccc([N+](=O)[O-])cc3)o2)cc1 | 39.2 | –
35 | N.N.N.N.O=[N+]([O-])[O-].[Co+3].[N-]=[N+]=[N-].[N-]=[N+]=[N-] | > 100 | –
36 | NC(=O)C(c1ccccc1)N1OC2C(=O)N(c3ccccc3)C(=O)C2C1c1c2ccccc2c(Cl)c2ccccc12 (centres undefined) | > 100 | –
37 | CC[C@@]1(C[C@H]2C[C@@]3(C(=O)OC)c4[nH]c5ccccc5c4CCN3C2=O)COC2(CCCCC2)O1 | > 100 | –
38 | COc1ccc(C2c3cc4c(cc3OC(NNS(=O)(=O)c3ccc(C)cc3)C2C)OCO4)cc1 (centres undefined) | > 100 | –
39 | CCC12C=CCN3CCC4(C(=C(C(=O)OC)[C@@H]1O)Nc1ccccc14)C32 (some centres undefined) | 4.72 | –
40 | Oc1cc2c3c(c1)c1cc4c(cc1c[n+]3CC2)OCO4 | > 100 | –
41 | COc1nc(N)c(C(=O)CCl)c(=O)n1C | 32.6 | –
42 | [N-]=[N+]=Nc1cc(=O)oc2ccccc12 | > 100 | –
43 | CC(=O)NC1=C(NCCC(C)C)C(=O)c2ccccc2C1=O | > 50 | –
44 | O=C([O-])CC(=O)[O-].O=C([O-])CC(=O)[O-].[K+].[Pd+2] | > 100 | > 100

tested on: SN12C renal; test: NCI anticancer screen, dose series, 48 h

Row | Compound | TGI [µM] | GI50 [µM]
45 | CC1C=C(CCCCCCCCCCCC[C@@H](O)[C@@H]2CC[C@@H]([C@@H]3CC[C@@H](C(O)CCCCCCCCCCCCC4=C[C@H](C)OC4=O)O3)O2)C(=O)O1 (some centres undefined) | > 100 | –
46 | COc1cc([C@@H]2OCC3C(c4ccc5c(c4)OCO5)OCC32)cc(OC)c1OC (some centres undefined) | > 100 | –
47 | N#CN=C(N(Cc1ccccc1)Cc1ccccc1)N(Cc1ccccc1)Cc1ccccc1 | > 100 | –
48 | CCCNC1=C2CC(C)CC(OC)[C@@H](O)[C@H](C)/C=C(\C)C(OC(N)=O)C(OC)/C=C\C=C(/C)C(=O)NC(=CC1=O)C2=O (some centres undefined) | 28.7 | 0.235
49 | C[n+]1c2ccccc2c(/C=N\NS(=O)(=O)c2ccc(O)c(C(=O)O)c2)c2ccccc21 | > 100 | –
50 | CC(=O)Nc1ccc(-c2nnc(SCC(=O)Nc3ccc([N+](=O)[O-])cc3)o2)cc1 | 29.8 | –
51 | N.N.N.N.O=[N+]([O-])[O-].[Co+3].[N-]=[N+]=[N-].[N-]=[N+]=[N-] | > 100 | –
52 | NC(=O)C(c1ccccc1)N1OC2C(=O)N(c3ccccc3)C(=O)C2C1c1c2ccccc2c(Cl)c2ccccc12 (centres undefined) | > 100 | –
53 | CC[C@@]1(C[C@H]2C[C@@]3(C(=O)OC)c4[nH]c5ccccc5c4CCN3C2=O)COC2(CCCCC2)O1 | > 100 | –
54 | COc1ccc(C2c3cc4c(cc3OC(NNS(=O)(=O)c3ccc(C)cc3)C2C)OCO4)cc1 (centres undefined) | > 100 | –
55 | CCC12C=CCN3CCC4(C(=C(C(=O)OC)[C@@H]1O)Nc1ccccc14)C32 (some centres undefined) | 5.71 | –
56 | Oc1cc2c3c(c1)c1cc4c(cc1c[n+]3CC2)OCO4 | 5.71 | –
57 | COc1nc(N)c(C(=O)CCl)c(=O)n1C | 45.2 | –
58 | [N-]=[N+]=Nc1cc(=O)oc2ccccc12 | > 100 | –
59 | CC(=O)NC1=C(NCCC(C)C)C(=O)c2ccccc2C1=O | > 50 | –
60 | O=C([O-])CC(=O)[O-].O=C([O-])CC(=O)[O-].[K+].[Pd+2] | > 100 | > 100

tested on: NCI/ADR-RES ovarian; test: NCI anticancer screen, dose series, 48 h

Row | Compound | TGI [µM]
61 | NC(=O)C(c1ccccc1)N1OC2C(=O)N(c3ccccc3)C(=O)C2C1c1c2ccccc2c(Cl)c2ccccc12 (centres undefined) | > 100
62 | CC[C@@]1(C[C@H]2C[C@@]3(C(=O)OC)c4[nH]c5ccccc5c4CCN3C2=O)COC2(CCCCC2)O1 | > 100

tested on: HCT-116 colon; test: NCI anticancer screen, dose series, 48 h

Row | Compound | TGI [µM] | GI50 [µM]
63 | CC1C=C(CCCCCCCCCCCC[C@@H](O)[C@@H]2CC[C@@H]([C@@H]3CC[C@@H](C(O)CCCCCCCCCCCCC4=C[C@H](C)OC4=O)O3)O2)C(=O)O1 (some centres undefined) | > 100 | –
64 | COc1cc([C@@H]2OCC3C(c4ccc5c(c4)OCO5)OCC32)cc(OC)c1OC (some centres undefined) | > 100 | –
65 | N#CN=C(N(Cc1ccccc1)Cc1ccccc1)N(Cc1ccccc1)Cc1ccccc1 | > 100 | –
66 | CCCNC1=C2CC(C)CC(OC)[C@@H](O)[C@H](C)/C=C(\C)C(OC(N)=O)C(OC)/C=C\C=C(/C)C(=O)NC(=CC1=O)C2=O (some centres undefined) | > 100 | 0.0589
67 | C[n+]1c2ccccc2c(/C=N\NS(=O)(=O)c2ccc(O)c(C(=O)O)c2)c2ccccc21 | > 100 | –
68 | CC(=O)Nc1ccc(-c2nnc(SCC(=O)Nc3ccc([N+](=O)[O-])cc3)o2)cc1 | 25 | –
69 | N.N.N.N.O=[N+]([O-])[O-].[Co+3].[N-]=[N+]=[N-].[N-]=[N+]=[N-] | > 100 | –
70 | NC(=O)C(c1ccccc1)N1OC2C(=O)N(c3ccccc3)C(=O)C2C1c1c2ccccc2c(Cl)c2ccccc12 (centres undefined) | > 100 | –
71 | CC[C@@]1(C[C@H]2C[C@@]3(C(=O)OC)c4[nH]c5ccccc5c4CCN3C2=O)COC2(CCCCC2)O1 | > 100 | –
